From publication PMC6597546, “Identification of a potent benzoxaborole drug candidate for treating cryptosporidiosis” (Nature Communications, 2019)
“And” between values parts separate entries of the source, which are not always exact repeats. Equal entries are not always repeated. Where two headings read alike, the source gives them in different places.

Experiments:
[1] = Rat toxicokinetics (TK) study; assay type: in vivo, Sprague-Dawley male rats; settings: for AUC / Cmax: po, 80 mg/kg
Method: A repeated oral dose toxicity and separate toxicokinetics (TK) study were performed in male rats by WuXi AppTec Company (Suzhou, China). […] All rat studies were performed using ∼8-week-old Sprague-Dawley male rats (Rattus novegicus)/Crl: CD[SD] VAF/Plus weighing between 243.22 and 276.57 g at the start of compound dosing. […] Serum was collected from vehicle-control animals at 1 h and 4 h after dosing on days 1 and 7.

[2] = test system: C. parvum DMC1 positive parasites; assay: Asexual-to-sexual stage conversion assay (DMC1 expression); assay type: cell-based, Cryptosporidium parvum
Method: (§1) The invasion assay, DNA replication assay, asexual to sexual stage conversion, and time-kill curve assays were performed using fluorescence microscopy to enumerate parasites and host cell nuclei. Staining protocols are individually described for each assay. Unless noted otherwise, the details of image acquisition were as follows. An inverted Nikon Eclipse Ti2000 microscope with an automated stage and Perfect Focus was used with NIS-Elements Advanced Research software (Nikon, USA, version 4.30.01) to image the wells. The microscope was programmed to focus on the center of each well and then take a 3 × 3 composite image per well using a 20 × (0.45 NA) objective. Images were exported as .tiff files and parasites and host nuclei counted using a custom macro on ImageJ (National Institutes of Health, version 1.52a). Data were analyzed using Microsoft Excel and GraphPad Prism (version 6.01). […] Amphotericin B (Sigma, catalog# A2942) was added to the culture media at 0.1 to 0.5 µg per mL for the DMC1 dose response assays.

C. hominis TU502 isolate = assay: C. hominis growth inhibition in HCT-8 cells; assay type: cell-based, Cryptosporidium hominis; settings: single replicates, unit inferred, read-out: In vitro efficacy (Fig 2b, EC50)
Method: Follow-up assays were performed at the University of Vermont (UVM) and Calibr at Scripps Research by infection of the colonic adenocarcinoma cell line HCT-8 (ATCC CCL-244) and staining with the Vicia villosa lectin and DAPI[17],[32]. The FBS concentrations and parasites used for these assays were as indicated; parasite isolates and sources included C. parvum Iowa isolate oocysts purchased from Bunch Grass Farm (Deary, ID), C. parvum Iowa isolate oocysts purchased from the Sterling Laboratory (University of Arizona, Tucson, AZ), wild type C. parvum oocysts provided by Dr. Jenni Zambriski (Virginia Tech, Blacksburg, VA), and the C. hominis TU502 isolate purchased from Dr. Saul Tzipori (Tufts University Cummings School of Veterinary Medicine, North Grafton, MA).

[3] = test system: C. parvum intracellular DNA synthesis; assay: EdU incorporation DNA replication assay; assay type: cell-based, Cryptosporidium parvum; settings: 2 × EC90 = 0.42 µM
Method: as §1, with “6.01). Measurement of DNA replication was used as a surrogate marker of Cryptosporidium development within HCT-8 cells.” for “6.01).”, “Images were acquired by focusing on” for “Amphotericin B (Sigma, catalog# A2942) was added to”, “parasite focal plane, which is on top of” for “culture media at 0.1 to 0.5 µg per mL for”, “host cell monolayer, using a ×40 objective (0.7 NA) and EdU and lectin numbers were quantified using ImageJ software.” for “DMC1 dose response assays.”

CYP2C19 = CYP2C19 (Homo sapiens, UniProt P33261); assay: CYP450 inhibition 2C19; assay type: in vitro ADME
CYP2C19, sequence (P33261 whole entry): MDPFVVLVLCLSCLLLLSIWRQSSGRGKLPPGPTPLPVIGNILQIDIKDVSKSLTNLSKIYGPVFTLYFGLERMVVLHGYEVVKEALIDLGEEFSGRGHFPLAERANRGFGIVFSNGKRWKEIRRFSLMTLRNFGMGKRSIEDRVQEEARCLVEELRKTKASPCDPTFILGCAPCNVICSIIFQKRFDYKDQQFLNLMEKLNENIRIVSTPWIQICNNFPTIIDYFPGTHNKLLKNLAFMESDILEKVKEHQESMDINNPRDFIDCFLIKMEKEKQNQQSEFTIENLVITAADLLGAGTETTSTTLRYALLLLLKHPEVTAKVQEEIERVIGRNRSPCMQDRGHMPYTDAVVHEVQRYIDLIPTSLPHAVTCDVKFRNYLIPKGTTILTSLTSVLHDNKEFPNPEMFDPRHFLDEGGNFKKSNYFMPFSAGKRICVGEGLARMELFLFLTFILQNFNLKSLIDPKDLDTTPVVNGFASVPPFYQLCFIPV

[4] = Liver microsome Clint (mouse); assay type: in vitro ADME; settings: liver microsomes
CYP1A2 = biological target: T1, CYP1A2 (Homo sapiens, UniProt P05177); assay: CYP450 inhibition 1A2; assay type: in vitro ADME
T1 sequence (P05177 1-516): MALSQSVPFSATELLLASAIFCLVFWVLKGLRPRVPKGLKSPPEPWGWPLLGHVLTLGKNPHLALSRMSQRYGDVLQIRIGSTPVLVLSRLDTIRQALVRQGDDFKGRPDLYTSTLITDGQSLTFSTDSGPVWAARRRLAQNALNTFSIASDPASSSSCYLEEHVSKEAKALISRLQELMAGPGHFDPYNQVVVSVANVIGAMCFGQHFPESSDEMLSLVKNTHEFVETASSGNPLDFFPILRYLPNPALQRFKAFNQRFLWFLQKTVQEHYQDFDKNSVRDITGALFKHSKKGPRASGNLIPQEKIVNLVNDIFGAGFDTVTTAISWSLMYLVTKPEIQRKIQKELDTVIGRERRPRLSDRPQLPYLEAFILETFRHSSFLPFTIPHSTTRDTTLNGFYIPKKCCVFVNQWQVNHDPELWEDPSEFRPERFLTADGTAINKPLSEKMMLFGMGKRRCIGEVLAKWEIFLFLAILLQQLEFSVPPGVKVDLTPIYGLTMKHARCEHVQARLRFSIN

[5] = test system: CYP450 (2B6, 1A2, 2C9, 2C19, 2D6, 3A4); assay: CYP450 inhibition, 6 isoforms; assay type: in vitro ADME; settings: @ 10 µM
[6] = male, Sprague-Dawley, rat, serum, rat, 80 mg·kg-1 oral once daily, Day 1
[7] = male, Sprague-Dawley, rat, serum, rat, 80 mg·kg-1 oral once daily, Day 7

With `CC1(C)OB(O)c2cc(NC(=O)c3ccc(-n4cccn4)cc3Cl)ccc21` [AN7973] the compound accumulation ([1]; 80 mg per kg once daily, 7 days) was “No compound accumulation was observed”, the AUC [1, 6] was 170 µg·h/mL and the Cmax [1, 6] was 11600 ng/mL. For the same molecule, the AUC [1, 7] was 155 µg·h/mL, the Cmax [1, 7] was 10100 ng/mL and the Tmax ([1]; male, Sprague-Dawley, serum, rat, 80 mg·kg-1 oral once daily, Day 1) was 8 h. The half-life ([1]; male, Sprague-Dawley, serum, rat, 80 mg·kg-1 oral once daily, Day 7) was 22.7 h, the EC50 ([2]; Cryptosporidium parvum, BGF Iowa isolate, HCT-8, 10% FBS, DMC1, interval in parentheses, read-out: EC50 asexual-to-sexual conversion (48–72 h)) was 480 nM and the “% inhibition, 48 - 72 h DMC1 (asexual to sexual conversion)” value (shortened to “% inhibition, 48 - 72 h DMC1”) ([2]; log [AN7973] (M) 0.10) was 95.75%. For the same molecule, the “% inhibition, 48 - 72 h DMC1” value ([2]; log [AN7973] (M) 0.28) was 95.64% and 78.65%, the “% inhibition, 48 - 72 h DMC1” value ([2]; log [AN7973] (M) 0.40) was 95.48% and the “% inhibition, 48 - 72 h DMC1” value ([2]; log [AN7973] (M) -0.20) was 85.62% and 65.23% and 46.69%. For the same molecule, the “% inhibition, 48 - 72 h DMC1” value ([2]; log [AN7973] (M) -0.68) was -48.74% and -54.94% and -50.77%, the “% inhibition, 48 - 72 h DMC1” value ([2]; log [AN7973] (M) -0.93) was -98.53% and the “% inhibition, 48 - 72 h DMC1” value ([2]; log [AN7973] (M) -1.23) was -40.27%. The “% inhibition, 48 - 72 h DMC1” value ([2]; log [AN7973] (M) -1.53) was -58.48%, the “% inhibition, 48 - 72 h DMC1” value ([2]; log [AN7973] (M) -2.01) was -35.29% and the “% inhibition, 48 - 72 h DMC1” value ([2]; log [AN7973] (M) -2.48) was -28.64%. For the same molecule, the EC50 (C. hominis TU502 isolate; C. hominis (Tu502, 2%FBS)) was 570 nM and 580 nM, the EC50 (C. hominis TU502 isolate; Cryptosporidium hominis, HCT-8, C. hominis (Tu502, 2%FBS)) was 750 nM and the “effect on intracellular DNA synthesis (EdU incorporation)” value [3] was “arrested new DNA synthesis”. It also gave an inhibition at 10 µM (CYP2C19) of 27%, a microsomal CLint [4] of under 1 µL/min/mg and an inhibition at 10 µM (CYP1A2) of 1%. The “CYP450 inhibition (in 6 isoforms – 2B6, 1A2, 2C9, 2C19, 2D6, 3A4)” value [5] was “Negative”.
